Data as given in ChEMBL document CHEMBL4507285, “Data for DCP probe MRL-SYKi” (2021).
The source made the active and inactive calls.

What was measured:
[1] = test system: eIF-2-alpha kinase GCN2 (Homo sapiens), Q9P2K8 [S808G]; settings: Compound concentration 100.0 nM
[2] = target: Serine/threonine-protein kinase PAK 5 (Homo sapiens) (UniProt Q9P286); settings: Compound concentration 100.0 nM
[3] = target: Muscarinic acetylcholine receptor M3 (Homo sapiens) (UniProt P20309); settings: Compound concentration 10.0 uM
[4] = target: Serine/threonine-protein kinase haspin (Homo sapiens) (UniProt Q8TF76); settings: Compound concentration 100.0 nM
[5] = target: Serine/threonine-protein kinase Sgk1 (Homo sapiens) (UniProt O00141); settings: Compound concentration 100.0 nM
[6] = target: Serine/threonine-protein kinase 17B (Homo sapiens) (UniProt O94768); settings: Compound concentration 100.0 nM
[7] = target: Serine/threonine-protein kinase D1 (Homo sapiens) (UniProt Q15139); settings: Compound concentration 100.0 nM
[8] = target: Serine/threonine-protein kinase LATS2 (Homo sapiens) (UniProt Q9NRM7); settings: Compound concentration 100.0 nM
[9] = target: Receptor-type tyrosine-protein kinase FLT3 (Homo sapiens) (UniProt P36888); settings: Compound concentration 100.0 nM
[10] = target: Misshapen-like kinase 1 (Homo sapiens) (UniProt Q8N4C8); settings: Compound concentration 100.0 nM
[11] = target: Serine/threonine-protein kinase 38 (Homo sapiens) (UniProt Q15208); settings: Compound concentration 100.0 nM
[12] = target: Serine/threonine-protein kinase/endoribonuclease IRE1 (Homo sapiens) (UniProt O75460); settings: Compound concentration 100.0 nM
[13] = target: Beta-1 adrenergic receptor (Homo sapiens) (UniProt P08588); settings: Compound concentration 10.0 uM
[14] = target: Receptor-type tyrosine-protein kinase FLT3 (Homo sapiens) (UniProt P36888); settings: Compound concentration 100.0 nM; remark: listed apart in the source
[15] = target: D(4) dopamine receptor (Homo sapiens) (UniProt P21917); settings: Compound concentration 10.0 uM
[16] = target: D(3) dopamine receptor (Homo sapiens) (UniProt P35462); settings: Compound concentration 10.0 uM
[17] = target: Histamine H3 receptor (Homo sapiens) (UniProt Q9Y5N1); settings: Compound concentration 10.0 uM
[18] = test system: Tyrosine-protein kinase ABL1 (Homo sapiens), P00519 [H396P]; settings: Compound concentration 100.0 nM
[19] = target: Serine/threonine-protein kinase 3 (Homo sapiens) (UniProt Q13188); settings: Compound concentration 100.0 nM
[20] = test system: Tyrosine-protein kinase ABL1 (Homo sapiens), P00519 [F317I]; settings: Compound concentration 100.0 nM
[21] = target: Death-associated protein kinase 3 (Homo sapiens) (UniProt O43293); settings: Compound concentration 100.0 nM
[22] = target: D(1B) dopamine receptor (Homo sapiens) (UniProt P21918); settings: Compound concentration 10.0 uM
[23] = target: Serine/threonine-protein kinase MARK1 (Homo sapiens) (UniProt Q9P0L2); settings: Compound concentration 100.0 nM
[24] = target: 5-hydroxytryptamine receptor 1B (Homo sapiens) (UniProt P28222); settings: Compound concentration 10.0 uM
[25] = target: Wee1-like protein kinase (Homo sapiens) (UniProt P30291); settings: Compound concentration 100.0 nM
[26] = target: Cyclin-dependent kinase 2 (Homo sapiens) (UniProt P24941); settings: Compound concentration 100.0 nM
[27] = target: Histamine H2 receptor (Homo sapiens) (UniProt P25021); settings: Compound concentration 10.0 uM
[28] = target: Tyrosine-protein kinase Srms (Homo sapiens) (UniProt Q9H3Y6); settings: Compound concentration 100.0 nM
[29] = target: Serine/threonine-protein kinase MRCK gamma (Homo sapiens) (UniProt Q6DT37); settings: Compound concentration 100.0 nM
[30] = target: Phosphatidylinositol 4-phosphate 3-kinase C2 domain-containing subunit beta (Homo sapiens) (UniProt O00750); settings: Compound concentration 100.0 nM
[31] = target: Calcium/calmodulin-dependent protein kinase type II subunit delta (Homo sapiens) (UniProt Q13557); settings: Compound concentration 100.0 nM
[32] = target: Tyrosine-protein kinase ABL1 (Homo sapiens) (UniProt P00519); settings: Compound concentration 100.0 nM
[33] = target: cAMP-dependent protein kinase catalytic subunit PRKX (Homo sapiens) (UniProt P51817); settings: Compound concentration 100.0 nM
[34] = test system: ALK tyrosine kinase receptor (Homo sapiens), Q9UM73 [L1196M]; settings: Compound concentration 100.0 nM
[35] = target: Cyclin-dependent kinase 2 homolog (Plasmodium falciparum (isolate 3D7)) (UniProt P61075); settings: Compound concentration 100.0 nM
[36] = target: G protein-coupled receptor kinase 4 (Homo sapiens) (UniProt P32298); settings: Compound concentration 100.0 nM
[37] = target: Tyrosine-protein kinase SYK (Homo sapiens, UniProt P43405); test: Human SKY enzyme assay
[38] = target: Receptor tyrosine-protein kinase erbB-4 (Homo sapiens) (UniProt Q15303); settings: Compound concentration 100.0 nM
[39] = test system: Phosphatidylinositol 4,5-bisphosphate 3-kinase catalytic subunit alpha isoform (Homo sapiens), P42336 [E545K]; settings: Compound concentration 100.0 nM
[40] = target: Tyrosine-protein kinase Fgr (Homo sapiens, UniProt P09769); settings: Compound concentration 100.0 nM
[41] = target: Serine/threonine-protein kinase TBK1 (Homo sapiens) (UniProt Q9UHD2); settings: Compound concentration 100.0 nM
[42] = test system: Mast/stem cell growth factor receptor Kit (Homo sapiens), P10721 [L576P]; settings: Compound concentration 100.0 nM
[43] = target: Serine/threonine-protein kinase VRK2 (Homo sapiens) (UniProt Q86Y07); settings: Compound concentration 100.0 nM
[44] = target: Receptor-interacting serine/threonine-protein kinase 2 (Homo sapiens) (UniProt O43353); settings: Compound concentration 100.0 nM
[45] = target: Angiopoietin-1 receptor (Homo sapiens) (UniProt Q02763); settings: Compound concentration 100.0 nM

Receptor-type tyrosine-protein kinase FLT3 (Homo sapiens), sequence (P36888 whole entry): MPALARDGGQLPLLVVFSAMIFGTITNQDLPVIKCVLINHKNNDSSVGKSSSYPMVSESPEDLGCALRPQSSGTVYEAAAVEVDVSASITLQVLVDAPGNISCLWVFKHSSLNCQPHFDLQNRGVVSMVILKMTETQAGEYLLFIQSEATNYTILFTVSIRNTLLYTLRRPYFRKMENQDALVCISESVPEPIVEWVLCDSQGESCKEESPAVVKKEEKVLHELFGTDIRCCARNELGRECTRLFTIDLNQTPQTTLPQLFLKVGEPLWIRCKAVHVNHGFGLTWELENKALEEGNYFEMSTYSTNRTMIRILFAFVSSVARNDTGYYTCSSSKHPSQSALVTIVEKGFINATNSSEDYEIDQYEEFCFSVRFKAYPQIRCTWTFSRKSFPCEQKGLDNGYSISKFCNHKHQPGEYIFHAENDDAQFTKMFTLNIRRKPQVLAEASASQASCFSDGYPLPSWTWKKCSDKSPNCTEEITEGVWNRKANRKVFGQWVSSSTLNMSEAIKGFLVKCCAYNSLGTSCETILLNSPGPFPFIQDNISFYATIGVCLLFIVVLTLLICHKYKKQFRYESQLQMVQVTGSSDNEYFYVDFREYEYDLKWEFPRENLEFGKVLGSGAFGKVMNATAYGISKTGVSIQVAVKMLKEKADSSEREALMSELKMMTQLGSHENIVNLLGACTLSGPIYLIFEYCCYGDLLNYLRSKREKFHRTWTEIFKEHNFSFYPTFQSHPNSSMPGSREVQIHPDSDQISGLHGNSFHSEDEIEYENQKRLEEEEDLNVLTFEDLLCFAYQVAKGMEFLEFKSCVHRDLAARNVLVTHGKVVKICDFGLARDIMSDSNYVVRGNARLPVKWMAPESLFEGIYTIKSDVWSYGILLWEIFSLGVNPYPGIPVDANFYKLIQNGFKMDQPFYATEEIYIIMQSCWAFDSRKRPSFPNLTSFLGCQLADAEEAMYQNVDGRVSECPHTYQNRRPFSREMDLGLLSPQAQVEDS
Receptor tyrosine-protein kinase erbB-4 (Homo sapiens), sequence (Q15303 whole entry, canonical isoform): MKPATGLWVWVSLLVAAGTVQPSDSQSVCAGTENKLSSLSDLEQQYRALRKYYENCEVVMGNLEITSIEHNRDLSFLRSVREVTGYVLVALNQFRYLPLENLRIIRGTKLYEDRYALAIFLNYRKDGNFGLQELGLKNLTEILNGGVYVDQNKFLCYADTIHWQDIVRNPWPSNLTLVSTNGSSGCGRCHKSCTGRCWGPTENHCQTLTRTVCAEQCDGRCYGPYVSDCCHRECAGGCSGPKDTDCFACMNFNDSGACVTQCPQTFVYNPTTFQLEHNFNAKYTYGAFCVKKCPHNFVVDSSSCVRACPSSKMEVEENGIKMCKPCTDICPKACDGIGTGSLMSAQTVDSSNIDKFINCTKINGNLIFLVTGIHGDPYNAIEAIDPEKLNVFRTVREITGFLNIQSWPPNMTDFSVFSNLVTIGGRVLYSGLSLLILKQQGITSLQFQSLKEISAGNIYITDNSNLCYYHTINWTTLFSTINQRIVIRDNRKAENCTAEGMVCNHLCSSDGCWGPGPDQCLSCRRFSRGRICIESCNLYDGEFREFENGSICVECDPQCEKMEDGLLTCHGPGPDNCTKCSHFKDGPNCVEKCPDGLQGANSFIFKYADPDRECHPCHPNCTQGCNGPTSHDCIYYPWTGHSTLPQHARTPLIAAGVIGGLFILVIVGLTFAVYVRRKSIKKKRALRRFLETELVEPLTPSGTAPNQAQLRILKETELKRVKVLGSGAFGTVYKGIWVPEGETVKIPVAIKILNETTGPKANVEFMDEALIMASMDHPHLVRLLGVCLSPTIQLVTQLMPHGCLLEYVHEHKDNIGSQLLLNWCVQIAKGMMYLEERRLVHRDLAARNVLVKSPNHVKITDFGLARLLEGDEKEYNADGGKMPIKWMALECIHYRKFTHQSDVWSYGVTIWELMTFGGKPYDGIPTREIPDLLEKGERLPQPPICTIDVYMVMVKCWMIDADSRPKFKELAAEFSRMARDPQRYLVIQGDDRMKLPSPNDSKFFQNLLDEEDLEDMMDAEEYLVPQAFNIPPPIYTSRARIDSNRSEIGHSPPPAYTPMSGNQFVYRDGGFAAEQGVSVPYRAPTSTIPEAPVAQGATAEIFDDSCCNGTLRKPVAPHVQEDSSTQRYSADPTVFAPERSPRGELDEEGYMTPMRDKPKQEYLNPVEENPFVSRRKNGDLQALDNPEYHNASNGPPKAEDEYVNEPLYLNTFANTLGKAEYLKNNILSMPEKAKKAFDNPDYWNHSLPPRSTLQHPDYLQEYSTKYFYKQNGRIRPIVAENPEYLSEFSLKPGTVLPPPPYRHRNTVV
Serine/threonine-protein kinase MRCK gamma (Homo sapiens), sequence (Q6DT37 whole entry, the tested form may be a part): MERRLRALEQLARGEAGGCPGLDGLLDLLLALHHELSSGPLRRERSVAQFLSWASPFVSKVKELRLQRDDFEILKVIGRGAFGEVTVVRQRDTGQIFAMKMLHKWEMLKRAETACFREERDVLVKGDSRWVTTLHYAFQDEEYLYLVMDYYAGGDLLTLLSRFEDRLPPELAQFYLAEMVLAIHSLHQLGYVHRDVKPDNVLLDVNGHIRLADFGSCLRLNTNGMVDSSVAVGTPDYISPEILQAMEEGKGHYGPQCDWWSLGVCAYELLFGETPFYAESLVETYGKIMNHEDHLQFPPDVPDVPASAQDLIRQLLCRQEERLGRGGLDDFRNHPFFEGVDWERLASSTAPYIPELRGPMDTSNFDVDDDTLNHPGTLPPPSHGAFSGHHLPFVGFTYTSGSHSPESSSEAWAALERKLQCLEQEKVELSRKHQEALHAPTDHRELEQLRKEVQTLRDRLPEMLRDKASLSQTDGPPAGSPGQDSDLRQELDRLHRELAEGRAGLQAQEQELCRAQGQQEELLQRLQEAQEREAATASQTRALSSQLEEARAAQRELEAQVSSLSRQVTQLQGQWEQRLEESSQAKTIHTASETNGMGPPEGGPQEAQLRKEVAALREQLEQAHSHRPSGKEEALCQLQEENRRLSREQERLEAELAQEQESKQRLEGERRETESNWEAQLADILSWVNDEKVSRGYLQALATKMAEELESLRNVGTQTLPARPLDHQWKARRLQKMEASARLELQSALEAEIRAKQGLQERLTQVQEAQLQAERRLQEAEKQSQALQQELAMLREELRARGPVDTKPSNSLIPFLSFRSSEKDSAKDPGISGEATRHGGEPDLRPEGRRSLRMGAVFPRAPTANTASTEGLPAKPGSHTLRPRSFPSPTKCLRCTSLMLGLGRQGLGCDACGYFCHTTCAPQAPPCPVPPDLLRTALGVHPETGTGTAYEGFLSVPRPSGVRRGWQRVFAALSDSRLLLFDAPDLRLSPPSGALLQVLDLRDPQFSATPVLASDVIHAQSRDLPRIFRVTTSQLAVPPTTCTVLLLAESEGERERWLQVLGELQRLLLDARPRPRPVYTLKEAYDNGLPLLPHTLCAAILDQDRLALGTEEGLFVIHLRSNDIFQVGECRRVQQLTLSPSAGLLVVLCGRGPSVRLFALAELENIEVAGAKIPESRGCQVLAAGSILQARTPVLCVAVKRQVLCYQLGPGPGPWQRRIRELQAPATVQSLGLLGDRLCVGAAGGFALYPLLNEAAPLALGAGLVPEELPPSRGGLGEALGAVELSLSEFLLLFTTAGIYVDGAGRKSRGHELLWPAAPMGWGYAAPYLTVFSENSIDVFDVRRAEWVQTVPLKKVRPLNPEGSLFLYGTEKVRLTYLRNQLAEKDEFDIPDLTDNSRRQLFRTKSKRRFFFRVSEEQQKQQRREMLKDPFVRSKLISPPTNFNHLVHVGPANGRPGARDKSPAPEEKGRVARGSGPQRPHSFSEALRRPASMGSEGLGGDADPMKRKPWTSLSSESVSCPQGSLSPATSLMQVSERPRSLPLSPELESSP
Serine/threonine-protein kinase 3 (Homo sapiens), sequence (Q13188 whole entry): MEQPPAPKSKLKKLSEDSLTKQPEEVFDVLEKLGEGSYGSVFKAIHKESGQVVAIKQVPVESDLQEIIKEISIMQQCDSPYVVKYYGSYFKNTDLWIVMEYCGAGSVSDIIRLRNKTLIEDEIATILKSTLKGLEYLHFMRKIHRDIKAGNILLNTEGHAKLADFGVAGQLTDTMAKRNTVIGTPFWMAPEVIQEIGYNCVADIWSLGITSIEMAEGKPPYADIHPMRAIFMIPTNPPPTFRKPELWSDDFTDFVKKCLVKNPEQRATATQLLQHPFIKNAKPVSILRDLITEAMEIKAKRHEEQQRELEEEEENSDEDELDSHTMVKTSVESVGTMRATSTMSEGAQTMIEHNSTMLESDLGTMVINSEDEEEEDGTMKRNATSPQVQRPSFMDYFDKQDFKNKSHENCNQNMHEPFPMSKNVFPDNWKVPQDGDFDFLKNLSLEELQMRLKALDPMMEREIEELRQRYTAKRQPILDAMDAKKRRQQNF
Calcium/calmodulin-dependent protein kinase type II subunit delta (Homo sapiens), sequence (Q13557 whole entry): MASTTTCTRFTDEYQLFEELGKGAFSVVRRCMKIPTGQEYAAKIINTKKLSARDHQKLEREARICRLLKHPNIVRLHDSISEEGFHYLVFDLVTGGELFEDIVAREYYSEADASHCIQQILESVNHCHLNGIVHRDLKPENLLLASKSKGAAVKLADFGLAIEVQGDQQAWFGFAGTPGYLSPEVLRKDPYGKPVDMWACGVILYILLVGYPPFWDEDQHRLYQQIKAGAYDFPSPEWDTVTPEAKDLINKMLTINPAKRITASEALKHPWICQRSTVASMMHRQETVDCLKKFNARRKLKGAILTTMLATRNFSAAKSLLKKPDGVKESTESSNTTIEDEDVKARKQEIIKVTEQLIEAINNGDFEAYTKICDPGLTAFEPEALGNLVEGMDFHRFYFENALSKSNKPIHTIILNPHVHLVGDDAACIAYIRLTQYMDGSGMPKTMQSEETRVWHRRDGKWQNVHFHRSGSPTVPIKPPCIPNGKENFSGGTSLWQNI

Cc1ccc(-c2cnc([C@@]3(O)CC[C@H](C(=O)O)C(C)(C)C3)s2)cc1Nc1cccc(C(F)(F)F)n1 [MRL-SYKi-NC]
4700 nM (not active): IC50 [37]
inactive: residual activity [1] 100% | residual activity [2] 96% | inhibition [3] 6.69% | residual activity [5] 64.9% | residual activity [6] 94.6% | residual activity [7] 90.1% | residual activity [8] 90.6% | residual activity [9] 100% | residual activity [10] 100% | residual activity [11] 87.9% | residual activity [12] 68.6% | inhibition [13] 10.3% | residual activity [14] 100% | inhibition [15] -9.54% | inhibition [16] -8.44% | inhibition [17] 46.4% | residual activity [18] 87.2% | residual activity [19] 98.1% | residual activity [20] 80.1% | residual activity [21] 92.7% | inhibition [22] 18.6% | residual activity [23] 62.8% | inhibition [24] 20.2% | residual activity [25] 81.4% | residual activity [26] 98.8% | inhibition [27] 8.65% | residual activity [28] 100% | residual activity [29] 100% | residual activity [30] 69.2% | residual activity [31] 87.2% | residual activity [32] 78.4% | residual activity [33] 97.2% | residual activity [34] 100% | residual activity [36] 100% | residual activity [38] 81.2% | residual activity [39] 97.7% | residual activity [40] 100% | residual activity [41] 86.4% | residual activity [42] 100% | residual activity [43] 100% | residual activity [44] 96.8% | residual activity [45] 95.2%
active: residual activity [4] 47% | residual activity [35] 33%

Cc1cc(Nc2nccc(C)n2)cc(-c2cnc([C@@]3(O)CC[C@H](C(=O)O)C(C)(C)C3)s2)c1 [MRL-SYKi]
inactive: residual activity [1] 56.2% | residual activity [2] 100% | inhibition [3] 17.4% | residual activity [4] 90.8% | residual activity [5] 100% | residual activity [6] 100% | residual activity [7] 100% | residual activity [8] 100% | residual activity [9] 100% | residual activity [10] 80.7% | residual activity [11] 80.6% | residual activity [12] 90.2% | inhibition [13] -9.08% | residual activity [14] 94.2% | inhibition [15] -6.05% | inhibition [16] -5.53% | residual activity [18] 74.3% | residual activity [19] 100% | residual activity [20] 100% | residual activity [21] 100% | inhibition [22] 8.85% | residual activity [23] 95.3% | inhibition [24] 11.6% | residual activity [25] 93.1% | residual activity [26] 94.7% | inhibition [27] 3.06% | residual activity [28] 81.2% | residual activity [29] 93.6% | residual activity [30] 100% | residual activity [31] 84.6% | residual activity [33] 100% | residual activity [34] 100% | residual activity [35] 100% | residual activity [36] 100% | residual activity [38] 81.9% | residual activity [39] 68.3% | residual activity [40] 100% | residual activity [41] 55.5% | residual activity [42] 85.1% | residual activity [43] 100% | residual activity [44] 83.8% | residual activity [45] 99%
active: inhibition [17] 50.4% | residual activity [32] 45.3% | IC50 [37] 0.9 nM
